The record followed here is patent publication US20050032873A1, “3-Amino chroman and 2-amino tetralin derivatives” (Wyeth, priority 2003, published 2005).

For assay [1], the target named is T1, serotonin transporter (Rattus norvegicus, UniProt P31652).
T1 construct: displace ^3H-paroxetine from male rat cortical membranes; from tissue; host or cells: male rat cortical membranes
Nature of the assay: 5-HT transporter affinity: displacement of 3H-paroxetine from male rat cortical membranes. The assay is classed as binding. To be noted: displacement of 3H-paroxetine; male rat cortical membranes; read-out: 5-HT Transporter Affinity Ki.

In assay [2] the target is T2, 5-HT1A receptor (Homo sapiens, UniProt P08908).
T2 sequence (P08908 1-422): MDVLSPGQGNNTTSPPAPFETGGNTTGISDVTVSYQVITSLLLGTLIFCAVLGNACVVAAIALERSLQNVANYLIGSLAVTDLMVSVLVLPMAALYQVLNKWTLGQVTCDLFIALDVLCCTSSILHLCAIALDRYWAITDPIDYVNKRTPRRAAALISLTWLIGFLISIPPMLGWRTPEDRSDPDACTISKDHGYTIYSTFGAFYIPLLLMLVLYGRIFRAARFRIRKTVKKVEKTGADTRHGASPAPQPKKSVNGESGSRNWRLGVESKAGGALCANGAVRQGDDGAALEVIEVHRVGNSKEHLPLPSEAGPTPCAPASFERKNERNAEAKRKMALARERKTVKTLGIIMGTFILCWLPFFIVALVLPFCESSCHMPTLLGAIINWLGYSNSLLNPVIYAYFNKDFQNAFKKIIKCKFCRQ
Nature of the assay: cAMP accumulation assay, 5-HT1A function. In kind it is cell-based. As to conditions: for IC50: cells marked IC50 (antagonist), read-out: 5-HT1A Function cAMP IC50; for Emax: read-out: 5-HT1A Function cAMP (Emax); for EC50: cells marked EC50 (agonist). For orientation: Cyclic AMP is a second messenger, typically raised through Gs and lowered through Gi signalling.

In assay [3] the target is T2, 5-HT1A receptor. Nature of the assay: 5-HT1A receptor affinity: displacement of [3H] 8-OH-DPAT. The assay is classed as binding. More on the design: expressed in transfected cells. As to conditions: for Ki: displacement of [3H] 8-OH-DPAT, CHO cells stably transfected with human 5-HT1A receptors, read-out: 5-HT1A Receptor Affinity Ki; for inhibition at 1 µM: read-out: 5-HT1A Receptor Affinity, % @ 1 μM.

For assay [4], the target named is T3, cloned human 5-HT1A receptors (Homo sapiens, UniProt P08908).
T3 construct: expressed in transfected cells
T3 sequence (P08908 1-422): T2 sequence (P08908 1-422)
Nature of the assay: 35S-GTPγS binding assay, 5-HT1A function. To be noted: for IC50: antagonist potency, reversal of 8-OH-DPAT, read-out: 5-HT1A Function GTPγS IC50; for EC50: agonist potency. In kind it is biochemical. For orientation: GTPγS resists hydrolysis and so accumulates on activated G proteins.
Description: The agonist or antagonist activity at 5-HT1A receptors was established by using two different assays. […] Agonists produce an increase in binding whereas antagonists produce no increase but rather reverse the effects of the standard agonist 8-OH-DPAT. The test compound's maximum stimulatory effect is represented as the Emax, while its potency is defined by the EC50. The test compound's maximum inhibitory effect is represented as the Imax, while its potency is defined by the IC50. The second assay measured cAMP accumulation upon binding of the ligand to the 5-HT1A receptor. […] The test compound's maximum stimulatory or inhibitory effect is represented as the Emax while its potency is defined by either IC50 for an antagonist or EC50 for an agonist. [^3H]-8-OH-DPAT was used to determine maximum agonist or antagonist response in both functional assays.

[5] abbreviates: maximum inhibitory effect, in brackets after IC50, read-out: 5-HT1A Function GTPγS (Imax).
Setting [6] is: maximum stimulatory effect, in brackets after EC50, read-out: 5-HT1A Function GTPγS (Emax).

The structures appear in SMILES notation. Read-outs that look alike come from different tables or passages of the source.

T1 sequence (P31652 whole entry): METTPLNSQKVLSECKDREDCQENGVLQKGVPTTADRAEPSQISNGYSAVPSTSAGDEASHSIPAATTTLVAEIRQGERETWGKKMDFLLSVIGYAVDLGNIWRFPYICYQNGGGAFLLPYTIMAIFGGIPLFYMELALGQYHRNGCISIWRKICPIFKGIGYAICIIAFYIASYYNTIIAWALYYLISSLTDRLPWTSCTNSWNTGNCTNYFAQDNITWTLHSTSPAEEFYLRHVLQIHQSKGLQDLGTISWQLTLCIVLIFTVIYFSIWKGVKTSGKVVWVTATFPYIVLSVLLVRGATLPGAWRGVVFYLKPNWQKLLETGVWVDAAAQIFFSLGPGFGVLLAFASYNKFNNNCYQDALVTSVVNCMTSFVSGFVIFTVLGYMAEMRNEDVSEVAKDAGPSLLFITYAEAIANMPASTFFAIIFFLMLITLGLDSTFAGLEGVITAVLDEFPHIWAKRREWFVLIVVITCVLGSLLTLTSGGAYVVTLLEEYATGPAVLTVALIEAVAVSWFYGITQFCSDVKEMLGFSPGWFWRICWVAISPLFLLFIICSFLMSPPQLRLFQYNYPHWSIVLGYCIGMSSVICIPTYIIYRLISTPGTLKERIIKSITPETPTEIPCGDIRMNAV

In the case of `CCCN(CCCCc1coc2c(OC)cccc12)[C@H]1COc2c(F)ccc(C(N)=O)c2C1` [Compound 172, (3R)-8-fluoro-3-[[4-(7-methoxy-1-benzofuran-3-yl)butyl](propyl)amino]chromane-5-carboxamide], the figures for the Ki in assay [1] and in assay [3] were 516 nM and 497 nM, respectively. The half-maximal inhibitory concentration (IC50) (in general, the point on the concentration scale where inhibition reaches its midpoint) in assay [2] amounted to 379 nM. Further, the Emax in assay [2] (in brackets after EC50 or IC50) was 0%.
Turning to `CC(Cc1c[nH]c2ccc(F)cc12)CN(CC1CC1)[C@H]1COc2c(F)ccc(C(N)=O)c2C1` (single isomer, unassigned) [Compound 155b], the inhibition constant Ki (in general, a dissociation constant, usually derived from enzyme kinetics or from competition with a known ligand) in assay [1] worked out at 144 nM; in assay [3], 128 nM. For the same compound, the half-inhibitory concentration (IC50) in assay [2] was 846 nM. Besides, the 5-HT1A Function cAMP (Emax) in assay [2] (in brackets after EC50 or IC50) turned out to be 0%.
In the case of `CCN(CCCc1c[nH]c2ccc(OC)cc12)C1COc2c(F)ccc(C(N)=O)c2C1` (stereo not shown) [Compound 105, 3-{ethyl[3-(5-methoxy-1H-indol-3-yl)propyl]amino}-8-fluorochromane-5-carboxamide], the results for the Ki in assay [1] and in assay [3] were 236 nM and 24.3 nM, respectively. In addition, it took 96.7 nM to reach a half-maximal effect in assay [2] (EC50). Besides, the Emax in assay [2] (in brackets after EC50 or IC50) came out at 81%.
On the same counts, the results for `CCCN(CCCCn1ccc2cc(F)ccc21)C1COc2c(F)ccc(C(N)=O)c2C1` (stereo not shown) [Compound 198, 8-Fluoro-3-[[4-(5-fluoro-1H-indol-1-yl)butyl](propyl)amino]chromane-5-carboxamide] are 114 nM, 6.54 nM, 67.7 nM and 82%.
As to `CCN(CCCCn1ccc2ccc(F)cc21)C1COc2c(F)ccc(C(N)=O)c2C1` (stereo not shown) [Compound 193, 3-{Ethyl[4-(6-fluoro-1H-indol-1-yl)butyl]amino}-8-fluorochromane-5-carboxamide], the Ki in assay [1] is 15.6 nM; in assay [3], 21.6 nM. Moreover, in assay [2], a half-maximal effect (EC50) was put at 117 nM. In assay [2] (in brackets after EC50 or IC50), the Emax turned out to be 89%.
As to `NC(=O)c1ccc(F)c2c1C[C@@H](N(CCCc1c[nH]c3c(F)cc(F)cc13)CC1CC1)CO2` [Compound 147, (3R)-3-{(cyclopropylmethyl)[3-(5,7-difluoro-1H-indol-3-yl)propyl]amino}-8-fluorochromane-5-carboxamide], the inhibition constant (Ki) in assay [1] came to 10.7 nM; in assay [3] it was 3.04 nM. The IC50 in assay [2] turned out to be 505 nM. Further, the Emax in assay [2] (in brackets after EC50 or IC50) turned out to be 0%.
Turning to `CCN(CCCCn1ccc2c(F)cccc21)C1COc2c(F)ccc(C(N)=O)c2C1` (stereo not shown) [Compound 201, 3-{Ethyl[4-(4-fluoro-1H-indol-1-yl)butyl]amino}-8-fluorochromane-5-carboxamide], the Ki in assay [1] came to 95 nM; in assay [3] it was 42.7 nM. For the same compound, in assay [2], a half-maximal effect (EC50) was put at 210 nM. Besides, the Emax in assay [2] (in brackets after EC50 or IC50) was determined as 92%.
For `CCCN(CCCCn1ccc2c(F)cccc21)C1COc2c(F)ccc(C(N)=O)c2C1` (stereo not shown) [Compound 202, 8-Fluoro-3-[[4-(4-fluoro-1H-indol-1-yl)butyl](propyl)amino]chromane-5-carboxamide] the same measures were 210 nM, 14 nM, 137 nM and 78%.
For `CC(C)CN(CCCc1c[nH]c2ccc(F)cc12)C1COc2cccc(C(N)=O)c2C1` (stereo not shown) [Compound 151, 3-[[3-(5-fluoro-1H-indol-3-yl)propyl](isobutyl)amino]chromane-5-carboxamide] the same measures were 1190 nM, 102 nM, 168 nM and 94%.
For `NC(=O)c1ccc(F)c2c1CC(N(CCCCn1ccc3cc(F)ccc31)CC1CC1)CO2` (stereo not shown) [Compound 199, 3-{(Cyclopropylmethyl)[4-(5-fluoro-1H-indol-1-yl)butyl]amino}-8-fluorochromane-5-carboxamide] the same measures were 77 nM, 5.44 nM, 74.7 nM and 72%.
For `N#Cc1ccc2[nH]cc(CCCN(C3CCC3)[C@@H]3COc4c(F)ccc(C(N)=O)c4C3)c2c1` [Compound 97a, (3S)-3-[[3-(5-cyano-1H-indol-3-yl)propyl](cyclobutyl)amino]-8-fluorochromane-5-carboxamide], the inhibition constant Ki in assay [1] came out at 9 nM; in assay [3], 258 nM. The IC50 in assay [2] is 581 nM. In addition, the Emax in assay [2] (in brackets after EC50 or IC50) stood at 0%.
Take `COc1cccc2c1CC(N[C@H]1CC[C@H](c3c[nH]c4ccc(F)cc43)CC1)CO2` (relative stereo) [Compound 181b, trans-N-[4-(5-fluoro-1H-indol-3-yl)cyclohexyl]-5-methoxychroman-3-amine]: in assay [1], the Ki was 3.07 nM. The IC50 in assay [4] worked out at 115 nM. In assay [4] (setting [5]), the Emax was 44.6%. Moreover, in assay [3], the inhibition at 1 µM is 46%.
As for `NC(=O)c1ccc(F)c2c1CC(N(CCCCn1ccc3ccc(F)cc31)C1CCC1)CO2` (stereo not shown) [Compound 196, 3-{Cyclobutyl[4-(6-fluoro-1H-indol-1-yl)butyl]amino}-8-fluorochromane-5-carboxamide], the inhibitory constant (Ki) came to 124 nM in assay [1] and 12.8 nM in assay [3]. In addition, the IC50 in assay [4] came to 428 nM. Also, the Emax in assay [4] (setting [5]) amounted to 100%.
Turning to `CNC(=O)c1ccc(F)c2c1CC(NCCCCc1c[nH]c3ccc(F)cc13)CO2` (stereo not shown) [Compound 92, 8-fluoro-3-{[4-(5-fluoro-1H-indol-3-yl)butyl]amino}-N-methylchromane-5-carboxamide], in assay [1], the inhibitory constant (Ki) was 7.95 nM. Besides, the concentration giving a half-maximal response (EC50) (in general, the concentration needed to bring the measured effect to its halfway point) in assay [4] stood at 1170 nM. For the same compound, the Emax in assay [4] (setting [6]) was found to be 50%. Also, in assay [3], the inhibition at 1 µM was determined as 47%.
For the compound `NC(=O)c1ccc(F)c2c1CC(NCCCCc1c[nH]c3ccc(F)cc13)CO2` (stereo not shown) [Compound 79, 8-fluoro-3-{[4-(5-fluoro-1H-indol-3-yl)butyl]amino}chromane-5-carboxamide], the inhibitory constant (Ki) in assay [1] amounted to 4.46 nM. Also, in assay [4], the half-inhibitory concentration (IC50) amounted to 2660 nM. Further, the Emax in assay [4] (setting [5]) was 63%. Further, the inhibition at 1 µM in assay [3] came out at 43%.
In the case of `NC(=O)c1ccc(F)c2c1OCC(NCCCc1c[nH]c3c(F)cc(F)cc13)C2` (stereo not shown) [Compound 128, 3-{[3-(5,7-difluoro-1H-indol-3-yl)propyl]amino}-5-fluorochromane-8-carboxamide], the inhibition constant (Ki) in assay [1] was found to be 54.5 nM. The compound also came in with an EC50 in assay [4] of 608 nM. Further, the Emax in assay [4] (setting [6]) was 59%. Moreover, the inhibition at 1 µM in assay [3] came out at 47%.
For the compound `CCCCNC(=O)c1ccc(F)c2c1CC(N(CCCc1c[nH]c3ccc(F)cc13)C1CCC1)CO2` (stereo not shown) [Compound 62, N-butyl-3-{cyclobutyl[3-(5-fluoro-1H-indol-3-yl)propyl]amino}-8-fluorochromane-5-carboxamide], the Ki in assay [1] came to 4.55 nM. In addition, the IC50 in assay [4] is 1900 nM. The Emax in assay [4] (setting [5]) is 50%. Further, in assay [3], the inhibition at 1 µM was found to be 40%.
For the compound `NC(=O)c1ccc(F)c2c1OCC(NCCCCc1c[nH]c3ccc(F)cc13)C2` (stereo not shown) [Compound 123, 5-fluoro-3-{[4-(5-fluoro-1H-indol-3-yl)butyl]amino}chromane-8-carboxamide], the inhibitory constant (Ki) was 3.81 nM in assay [1] and 280 nM in assay [3]. Besides, the response in assay [4] was half-maximal at 2260 nM (EC50). Further, in assay [4] (setting [6]), the Emax came to 100%.
Take `CC(C1CC1)N(CCCc1c[nH]c2ccc(F)cc12)C1COc2c(F)ccc(C(N)=O)c2C1` (stereo not shown) [Compound 6, 3-{(1-cyclopropylethyl)[3-(5-fluoro-1H-indol-3-yl)propyl]amino}-8-fluorochromane-5-carboxamide]: the Ki in assay [1] is 18.9 nM. Besides, the IC50 in assay [4] was found to be 4840 nM. The Emax in assay [4] (setting [5]) came to 87%. Besides, the inhibition at 1 µM in assay [3] was 30%.
In the case of `NC(=O)c1ccc(F)c2c1CC(NCCc1c[nH]c3ccc(F)cc13)CO2` (stereo not shown) [Compound 75, 8-fluoro-3-{[2-(5-fluoro-1H-indol-3-yl)ethyl]amino}chromane-5-carboxamide], the Ki in assay [1] turned out to be 1030 nM. In addition, the IC50 in assay [4] amounted to 2150 nM. Moreover, in assay [4] (setting [5]), the Emax is 40%. Further, the inhibition at 1 µM in assay [3] was 0%.
Regarding `COc1cccc2c1CC(N[C@H]1CC[C@@H](c3c[nH]c4ccc(F)cc43)CC1)CO2` (relative stereo) [Compound 181a, cis-N-[4-(5-fluoro-1H-indol-3-yl)cyclohexyl]-5-methoxychroman-3-amine], in assay [1], the Ki is 26 nM. Besides, the midpoint of the response in assay [4], the EC50, lay at 40000 nM. Also, the Emax in assay [4] (setting [6]) came out at 79.4%. The inhibition at 1 µM in assay [3] was determined as 37%.
Turning to `CCN(CCCc1c[nH]c2ccc(F)cc12)C1COc2c(F)ccc(C(=O)NC)c2C1` (stereo not shown) [Compound 89, 3-{ethyl[3-(5-fluoro-1H-indol-3-yl)propyl]amino}-8-fluoro-N-methylchromane-5-carboxamide], the Ki was 1.08 nM in assay [1] and 21.2 nM in assay [3]. The compound also yielded a half-maximal effective concentration (EC50) in assay [4] of 110 nM. Also, in assay [4] (setting [6]), the Emax came out at 62%.
